Results taken from patent publication US20240148821A1, “PHARMACEUTICAL USE OF CYCLIC PEPTIDE COMPOUND” (CHUGAI SEIYAKU KABUSHIKI KAISHA, priority 2021, published 2024).
Numbered stars: 1 amine (or outer) side, 2 acyl side, 3 side chain; on linkers, the order of the positions; unused ones are H or OH. Bridge positions count the residues as written; N and C are the ends. Square brackets hold non-standard residues; d marks the D form. Peptide text beside a SMILES is read from it. * marks the point of attachment. hPhe(3-Cl-4-CF3) = N[C@@H](CCc1ccc(C(F)(F)F)c(Cl)c1)C(=O)O; hPhe(3-F,4-CF3) = N[C@@H](CCc1ccc(C(F)(F)F)c(F)c1)C(=O)O; NMePhe(4-CF3) = CN[C@@H](Cc1ccc(C(F)(F)F)cc1)C(=O)O; NMePhe(4-Me) = CN[C@@H](Cc1ccc(C)cc1)C(=O)O; NMePhe(2-Cl) = CN[C@@H](Cc1ccccc1Cl)C(=O)O; NMedβ3hAla = C[C@H](CC(=O)[*:2])N(C)[*:1]; NMeGly(cPent) = CN[C@H](C(=O)O)C1CCCC1; NMeCha = CN[C@@H](CC1CCCCC1)C(=O)O; NMehLeu = CN[C@@H](CCC(C)C)C(=O)O; Hyp = O=C(O)[C@@H]1C[C@@H](O)CN1; NMeI = CC[C@H](C)[C@H](NC)C(=O)O; NMeD = CN[C@@H](CC(=O)O)C(=O)O; NMeL = CN[C@@H](CC(C)C)C(=O)O; NMeV = CN[C@H](C(=O)O)C(C)C; Trifluoroethyl = FC(F)(F)C*; NMeS = CN[C@@H](CO)C(=O)O; Morpholide = C1CN(*)CCO1; NMeA = CN[C@@H](C)C(=O)O; Piperidide = C1CCN(*)CC1; dNMeA = CN[C@H](C)C(=O)O; Ac5c = NC1(C(=O)O)CCCC1; Aze = O=C(O)[C@@H]1CCN1; Sar = CNCC(=O)O; Propyl = CCC*

How the values were obtained:
[1] = target: protein-protein interaction between Kras and SOS1 (biotin-tagged human Kras loaded with GDP, His-tagged human SOS1) (Homo sapiens (Human), UniProt P01116, G12D); assay: Protein-protein interaction inhibition between Kras and SOS1 (KrasG12D-SOS PPI) using AlphaScreen; type: biochemical; conditions: AlphaScreen; biotin-tagged human Kras loaded with GDP, His-tagged human SOS1; read-out: KRAS G12D-SOS PPI IC50;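 note: kras produced in E. coli, Ni-coupled donor beads and streptavidin acceptor beads, excitation 680 nm with emission detected at 520–620 nm via singlet oxygen transfer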
[2] = system: Human pancreatic cancer cell line AsPC-1 (G12D mutation Kras); assay: AsPC-1 cell growth inhibition (AsPC-1 CGI); type: cell-based; conditions: read-out: AsPC-1 cell growth inhibition, 50% growth inhibitory concentration (IC50 value); 96 hours, CellTiter-Glo, values classified in ranges
Method: Test compounds were serially dilated with dimethyl sulfoxide, and 200 nL was then dispensed to a U-bottom 96-well plate using Labcyte Echo. […] The cell suspension was dispensed to a. plate containing a test compound at 100 μL per well and incubated at 37° C. in a 5% carbon dioxide gas incubator. 96 hours later, 80 μL of CellTiter-Glo (Promega) was added to each well and fluorescence was measured.

Structure (SMILES) | IC50 [1] | IC50 [2]
CCO[C@@H]1C[C@H]2C(=O)NC3(CCCC3)C(=O)N(C)[C@@H]([C@@H](C)CC)C(=O)N(C)[C@H](C)CC(=O)N(C)[C@@H](CC(C)C)C(=O)N[C@@H]([C@@H](C)CC)C(=O)N(C)[C@@H](C)C(=O)N3CC[C@H]3C(=O)N(C)[C@@H](Cc3ccc(C(F)(F)F)cc3)C(=O)N(C)CC(=O)N[C@@H](CCc3ccc(C(F)(F)F)c(Cl)c3)C(=O)N2C1 [Compound 301] (cyclo([Ac5c][NMeI][NMedβ3hAla][NMeL]I[NMeA][Aze][NMePhe(4-CF3)][Sar][hPhe(3-Cl-4-CF3)][Hyp](Et))) | 0.74 nM | ≤ 20 nM
CC[C@H](C)[C@@H]1NC(=O)[C@H](CC(C)C)N(C)C(=O)C[C@@H](C(=O)N2CCOCC2)N(C)C(=O)[C@H](C2CCCC2)N(C)C(=O)C2(CCCC2)NC(=O)[C@@H]2CCCN2C(=O)[C@H](CCc2ccc(C(F)(F)F)c(Cl)c2)NC(=O)CN(C)C(=O)[C@H](C2CCCC2)N(C)C(=O)[C@@H]2CCN2C(=O)[C@H](C)N(C)C1=O [Compound 302] ([NMeL]I[NMeA][Aze][NMeGly(cPent)][Sar][hPhe(3-Cl-4-CF3)]P[Ac5c][NMeGly(cPent)][NMeD]-Morpholide; lactam N-11) | 0.68 nM | ≤ 20 nM
CC(C)C[C@H]1C(=O)N[C@@H](COCC(F)(F)F)C(=O)N(C)[C@@H](C)C(=O)N2CC[C@H]2C(=O)N(C)[C@@H](CC2CCCCC2)C(=O)N(C)CC(=O)N[C@@H](CCc2ccc(C(F)(F)F)c(Cl)c2)C(=O)N2CCC[C@H]2C(=O)NC2(CCCC2)C(=O)N(C)[C@@H](C(C)C)C(=O)N(C)[C@H](C(=O)N2CCCCC2)CC(=O)N1C [Compound 304] ([NMeL]S(Trifluoroethyl)[NMeA][Aze][NMeCha][Sar][hPhe(3-Cl-4-CF3)]P[Ac5c][NMeV][NMeD]-Piperidide; lactam N-11) | 87 nM | > 500 nM
CC[C@H](C)[C@@H]1NC(=O)[C@H](C)N(C)C(=O)C[C@@H](C(=O)N2CCCCC2)N(C)C(=O)[C@H](C(C)C)N(C)C(=O)C2(CCCC2)NC(=O)[C@@H]2CCCN2C(=O)[C@H](CCc2ccc(C(F)(F)F)c(Cl)c2)NC(=O)[C@@H](C)N(C)C(=O)[C@H](CC2CCCCC2)N(C)C(=O)[C@@H]2CCCN2C(=O)CN(C)C1=O [Compound 307] ([NMeA]I[Sar]P[NMeCha][dNMeA][hPhe(3-Cl-4-CF3)]P[Ac5c][NMeV][NMeD]-Piperidide; lactam N-11) | 4.4 nM | > 500 nM
CC[C@H](C)[C@@H]1NC(=O)[C@H](CCC(C)C)N(C)C(=O)C[C@@H](C(=O)N(C)C)N(C)C(=O)[C@H]([C@@H](C)CC)N(C)C(=O)C2(CCCC2)NC(=O)[C@@H]2CCCN2C(=O)[C@H](CCc2ccc(C(F)(F)F)c(Cl)c2)NC(=O)CN(C)C(=O)[C@H](Cc2ccc(C)cc2)N(C)C(=O)[C@@H]2CCN2C(=O)[C@H](C)NC1=O [Compound 308] ([NMehLeu]IA[Aze][NMePhe(4-Me)][Sar][hPhe(3-Cl-4-CF3)]P[Ac5c][NMeI][NMeD]-NMe2; lactam N-11) | 0.93 nM | ≤ 20 nM
CC[C@H](C)[C@@H]1NC(=O)[C@H](CC(C)C)N(C)C(=O)C[C@@H](C(=O)N(C)C)N(C)C(=O)[C@H](C2CCCC2)N(C)C(=O)[C@H](C)NC(=O)[C@@H]2CCCN2C(=O)[C@H](CCc2ccc(C(F)(F)F)c(Cl)c2)NC(=O)CN(C)C(=O)[C@H](CC2CCCCC2)N(C)C(=O)[C@@H]2CCN2C(=O)[C@H](C)N(C)C1=O [Compound 314] ([NMeL]I[NMeA][Aze][NMeCha][Sar][hPhe(3-Cl-4-CF3)]PA[NMeGly(cPent)][NMeD]-NMe2; lactam N-11) | 2.6 nM | > 500 nM
CCCOC[C@H]1C(=O)N(C)CC(=O)N[C@@H](CCc2ccc(C(F)(F)F)c(F)c2)C(=O)N2CCC[C@H]2C(=O)NC2(CCCC2)C(=O)N(C)[C@@H]([C@@H](C)CC)C(=O)N(C)[C@H](C(=O)N(C)C)CC(=O)N(C)[C@@H](CC(C)C)C(=O)N[C@@H]([C@@H](C)CC)C(=O)N(C)[C@@H](C)C(=O)N2CC[C@H]2C(=O)N1C [Compound 316] ([NMeL]I[NMeA][Aze][NMeS](Propyl)[Sar][hPhe(3-F,4-CF3)]P[Ac5c][NMeI][NMeD]-NMe2; lactam N-11) | 3.3 nM | ≤ 20 nM
CC[C@H](C)[C@@H]1NC(=O)[C@H](C)N(C)C(=O)C[C@@H](C(=O)N(C)C)N(C)C(=O)[C@H](C(C)C)N(C)C(=O)C2(CCCC2)NC(=O)[C@H](Cc2ccccc2Cl)N(C)C(=O)[C@H](CCc2ccc(C(F)(F)F)c(Cl)c2)NC(=O)CN(C)C(=O)[C@H](CC2CCCCC2)N(C)C(=O)CN(C)C(=O)CN(C)C1=O [Compound 317] ([NMeA]I[Sar][Sar][NMeCha][Sar][hPhe(3-Cl-4-CF3)][NMePhe(2-Cl)][Ac5c][NMeV][NMeD]-NMe2; lactam N-11) | 30 nM | > 500 nM
